Laboratory results: US20110262450A1, “MODULATORS OF MONOGLYCERIDE LIPASE IN THE TREATMENT OF ACNE, OF SEBORRHOEIC DERMATITIS OR OF HYPERSEBORRHOEA” (priority 2008, published 2011)

Key:
[1] = test system: Monoglyceride lipase (MGLL); assay: Expression of MGLL in Fuzzy rat epidermal split after topical treatment (Affymetrix transcriptome analysis); format: in vivo; details: female FUZZY rats, topical 1% once a day for 8 days, Affymetrix 1388644_at, control condition 214
Method: The studies are carried out in female Fuzzy rats (Hsd: Fuzzy-fz) ten weeks old at the beginning of the study. The animals are treated at a dose of 1% (PPARg agonist rosiglitazone in solution in acetone) once a day for 8 days. Two hours after the final treatment, the animals are sacrificed by euthanasia and the skin on the back is removed. After incubation in dispase, the epidermis carrying the sebaceous glands is detached from the dermis (epidermal split). After grinding of the samples, the mRNA is prepared using Qiagen columns, in accordance with the supplier's instructions. The material thus prepared is subjected to large-scale transcriptome analysis on an Affymetrix platform. The data are subsequently standardized and, after statistical analysis, the results produced are expressed in arbitrary expression units (see below) accompanied, for each piece of data, by a statistical value for presence of the transcript (presence=1; absence=0).

MGLL = assay: Expression of MGLL in rat sebaceous gland (epidermal split) after topical PPARgamma agonist treatment, real-time PCR; format: in vivo; details: female FUZZY rats, topical 1% in acetone, standardized to 18S, versus carrier group
Excerpt: • Strain: Ico:Hsd:FUZZY-fz • Gender: female • Age: 10 weeks Number per batch: 40 (8 animals per group) Treatment: Route of administration: topical • Compound/batch: PPARgamma agonists: • A: 5-{4-[2-(methylpyridin-2-ylamino)ethoxy]-benzyl}thiazolidine-2,4-dione • B: (2-methoxyethoxymethoxy)naphthalene-2-carboxylic acid [4′-(2,4-dioxothiazolidin-5-ylmethyl)biphenyl-3-ylmethyl]methylamide or rosiglitazone • C: (S)-2-ethoxy-3-{4-[6-(3-heptyl-1-methyl-ureido)pyridin-2-yl)phenyl}propionic acid • Doses: 1% • Carrier: acetone (001) • Duration 96 hours Method of evaluation: The animals are weighed at the beginning and at the end of the study. Skin biopsies are taken (6 samples of skin excised per rat) in order to analyse the expression of the genes (RNA extraction, reverse transcriptase and real-time PCR). The samples are stored overnight at 4° C. before incubation in 1M sodium bromide (NaBr) for 2 hours at 37° C. After incubation, the samples are separated into epidermis or dermis. The epidermal samples are stored at 20° C. […] PCRs are carried out, beginning with the cDNAs originating from the epidermal splits containing sebaceous glands from control rats or rats treated with a PPARγ agonist: the mRNA is extracted using a column and quantified. The quality of the mRNAs is measured and is represented by the 18S/28S ratio. The results are standardized with respect to 18S, expressed as relative induction versus untreated animals (carrier group). The statistical analysis is obtained using internal software based on a modified Monte Carlo statistical analysis.

| Compound | Expression after treatment with 1% rosiglitazone [1] | MGLL relative induction, 0 hours (MGLL) | MGLL relative induction, 8 hours (MGLL) | MGLL relative induction, 24 hours (MGLL) | MGLL relative induction, 48 hours (MGLL) | MGLL relative induction, 96 hours (MGLL) |
| --- | --- | --- | --- | --- | --- | --- |
| CN(CCOc1ccc(CC2SC(=O)NC2=O)cc1)c1ccccn1 (stereo not shown) [rosiglitazone] | 576 arbitrary expression units |  |  |  |  |  |
| CN(CCOc1ccc(CC2SC(=O)NC2=O)cc1)c1ccccn1 (stereo not shown) [A, 5-{4-[2-(methylpyridin-2-ylamino)ethoxy]-benzyl}thiazolidine-2,4-dione] |  | 1 | 2.37 | 5.06 | 3.13 | 5.76 |
| (2-methoxyethoxymethoxy)naphthalene-2-carboxylic acid [4′-(2,4-dioxothiazolidin-5-ylmethyl)biphenyl-3-ylmethyl]methylamide |  | 1 | 1.17 | 2.21 | 3.12 | 1.61 |
| CCCCCCCNC(=O)N(C)c1cccc(-c2ccc(C[C@H](OCC)C(=O)O)cc2)n1 [C, (S)-2-ethoxy-3-{4-[6-(3-heptyl-1-methyl-ureido)pyridin-2-yl)phenyl}propionic acid] |  | 1 | 5.01 | 3.90 | 3.88 | 3.86 |
